{"source": "patent US20170252338A1", "about": "“MEDICINE” (KOWA COMPANY, LTD., priority 2014, published 2017)", "key": {"[1]": {"assay": "Thermal stability test (residual ratio by HPLC after storage in glass bottles)", "type": "physicochemical", "settings": "for Residual ratio (%) After storage at 80° C. for 72 hours / Residual ratio (%) After storage at 100° C. for 24 hours / Residual ratio (%) After storage at 120° C. for 16 hours: glass bottles, HPLC area percentage", "experimental": "A test compound was introduced into glass bottles, and the bottles were stored for certain time periods under temperature conditions of 80° C., 100° C., or 120° C. Subsequently, the residual ratio (%) of the pyrimidine compound (1) in the test compound was measured. Regarding the residual ratio, the proportion of the pyrimidine compound (1) contained in the test compound was measured as the peak area percentage using high performance liquid chromatography. In regard to the measurement by high performance liquid chromatography, an ODS column was used as a column, and a mixture of two kinds, namely, a 0.1% aqueous solution of TFA and a 0.1% acetonitrile solution of TFA, was used as a solvent. The detection wavelength was 242 nm. The residual ratio was calculated by the following calculation expression from the area percentage of the pyrimidine compound (1) thus obtained. Residual ratio (%)=Area percentage of pyrimidine compound (1) after storage/area percentage of pyrimidine compound (1) before storage×100 As the test compound, the crystals (crystals of pyrimidine compound (1) hydrochloride) obtained in Reference Example 1-3, and the free form of the pyrimidine compound (1) were used."}, "[2]": {"system": "LDL cholesterol in blood plasma", "assay": "Evaluation of combined use of statin and CETP inhibitor: blood plasma LDL cholesterol after two weeks oral administration in guinea pigs", "type": "in vivo, guinea pigs (Slc: Hartley)", "settings": "for Amount of LDL cholesterol in blood plasma: male guinea pigs, average ± standard deviation; for Amount of LDL cholesterol in blood plasma / Plasma LDL cholesterol lowering ratio: oral, two weeks", "experimental": "Male guinea pigs (six weeks old, Slc: Hartley, Japan SLC, Inc.) were used for the experiment. Blood was collected from the jugular vein, and the guinea pigs were grouped on the basis of the total plasma cholesterol level and body weight.\nAfter completion of repeated administration, blood was collected under anesthesia with pentobarbital, and the amount of LDL cholesterol in blood plasma (mg/dl. Hereinafter, described as “amount of LDL cholesterol in blood plasma”) was measured using high performance liquid chromatography according to the method by Usui, et al. (Usui et al., Clin. Chem., 46, 63-72 (2000)).\nThe group configuration consisted of the following four items, and six guinea pigs were used for each group.\n(2) Pitavastatin single administration group: Pitavastatin calcium pentahydrate was orally administered at a dose of 1 mg/kg of body weight.\nThe amount of LDL cholesterol in blood plasma was obtained as an average value ±standard deviation.\nFurthermore, the proportions of lowering of LDL cholesterol in blood plasma in the various drug administration groups (“plasma LDL cholesterol lowering ratios”) were calculated by the expression described below, from the average values of the amounts of LDL cholesterol in blood plasma of the control group and the various drug administration groups.\nPlasma LDL cholesterol lowering ratio (%)=[(Cc−Ct)/Cc]×100\nwherein Cc represents the average value of the amount of LDL cholesterol in blood plasma in the control group; and Ct represents the average value of the amount of LDL cholesterol in blood plasma of each of the various drug administration groups.\nFurthermore, the average values of the amounts of LDL cholesterol in blood plasma of each of the various drug administration groups in a case in which the average value of the amount of LDL cholesterol in blood plasma of the control group was designated as 1, were calculated as relative indices.\nFurthermore, determination of a synergistic effect according to Bulge formula was implemented."}, "[3]": {"settings": "Test Example 1-2, control group designated as 1, pitavastatin 1 mg/kg, anacetrapib 30 mg/kg"}, "[4]": {"settings": "Test Example 1-2, pitavastatin 1 mg/kg, anacetrapib 30 mg/kg, control 18.5 ± 4.8"}, "[5]": {"settings": "Test Example 1-2, vs control group, pitavastatin 1 mg/kg, anacetrapib 30 mg/kg"}, "[6]": {"settings": "Test Example 1-1, [(Cc−Ct)/Cc]×100 vs control group, pitavastatin 1 mg/kg, pyrimidine compound (1) 30 mg/kg"}, "[7]": {"settings": "Test Example 1-1, average plasma LDL cholesterol with control group designated as 1, pitavastatin 1 mg/kg, pyrimidine compound (1) 30 mg/kg"}, "[8]": {"settings": "Test Example 1-1, pitavastatin calcium pentahydrate 1 mg/kg, pyrimidine compound (1) monohydrochloride 30 mg/kg, six per group, control 22.4 ± 2.9"}}}
{"smiles": "CCN(C[C@H]1CC[C@H](CC(=O)O)CC1)c1ccc(C(F)(F)F)cc1CN(c1ncc(OCCS(C)(=O)=O)cn1)[C@@H](C)c1cc(C(F)(F)F)cc(C(F)(F)F)c1.Cl", "note": "[(S)-trans-{4-[({2-[({1-[3,5-bis(trifluoromethyl)phenyl]ethyl}{5-[2-(methylsulfonyl)ethoxy]pyrimidin-2-yl}amino)methyl]-4-(trifluoromethyl)phenyl}(ethyl)amino)methyl]cyclohexyl}acetic acid hydrochloride]", "values": [{"measurement": "Residual ratio (%) After storage at 80° C. for 72 hours", "setting": "[1]", "value": 100.0, "unit": "%"}, {"measurement": "Residual ratio (%) After storage at 100° C. for 24 hours", "setting": "[1]", "value": 100.0, "unit": "%"}, {"measurement": "Residual ratio (%) After storage at 120° C. for 16 hours", "setting": "[1]", "value": 99.5, "unit": "%"}, {"measurement": "Thermal stability", "setting": "[1]; conclusion from Table 10", "value": "excellent thermal stability"}]}
{"smiles": "COc1cc(F)c(C(C)C)cc1-c1ccc(C(F)(F)F)cc1CN1C(=O)O[C@H](c2cc(C(F)(F)F)cc(C(F)(F)F)c2)[C@@H]1C", "note": "[Anacetrapib]", "values": [{"measurement": "Relative index", "setting": "[2]; [3]", "value": 0.98}, {"measurement": "Amount of LDL cholesterol in blood plasma", "setting": "[2]; [4]", "value": "18.2 ± 4.1", "unit": "mg/dL"}, {"measurement": "Plasma LDL cholesterol lowering ratio", "setting": "[2]; [5]", "value": 2, "unit": "%"}]}
{"smiles": "CCN(C[C@H]1CC[C@H](CC(=O)O)CC1)c1ccc(C(F)(F)F)cc1CN(c1ncc(OCCS(C)(=O)=O)cn1)[C@@H](C)c1cc(C(F)(F)F)cc(C(F)(F)F)c1", "note": "[Free form of pyrimidine compound (1), (S)-trans-{4-[({2-[({1-[3,5-bis(trifluoromethyl)phenyl]ethyl}{5-[2-(methylsulfonyl)ethoxy]pyrimidin-2-yl}amino)methyl]-4-(trifluoromethyl)phenyl}(ethyl)amino)methyl]cyclohexyl}acetic acid]", "values": [{"measurement": "Residual ratio (%) After storage at 80° C. for 72 hours", "setting": "[1]", "value": 99.5, "unit": "%"}, {"measurement": "Residual ratio (%) After storage at 100° C. for 24 hours", "setting": "[1]", "value": 89.3, "unit": "%"}, {"measurement": "Residual ratio (%) After storage at 120° C. for 16 hours", "setting": "[1]", "value": 71.5, "unit": "%"}]}
{"smiles": "O=C(O)C[C@H](O)C[C@H](O)/C=C/c1c(C2CC2)nc2ccccc2c1-c1ccc(F)cc1", "note": "[Pitavastatin, (+)-monocalcium is[(3R,5S,6E)-7-[2-cyclopropyl-4-(4-fluorophenyl)-3-quinolyl]-3,5-dihydroxy-6-heptenoate}]", "values": [{"measurement": "Plasma LDL cholesterol lowering ratio", "setting": "[2]; [6]", "value": 31, "unit": "%"}, {"measurement": "Relative index", "setting": "[2]; [7]", "value": 0.69}, {"measurement": "Amount of LDL cholesterol in blood plasma", "setting": "[2]; [8]", "value": "15.5 ± 3.9", "unit": "mg/dL"}, {"measurement": "Relative index", "setting": "[2]; [3]", "value": 0.62}, {"measurement": "Amount of LDL cholesterol in blood plasma", "setting": "[2]; [4]", "value": "11.5 ± 3.3", "unit": "mg/dL"}, {"measurement": "Plasma LDL cholesterol lowering ratio", "setting": "[2]; [5]", "value": 38, "unit": "%"}]}
{"smiles": "CCN(C[C@H]1CC[C@H](CC(=O)O)CC1)c1ccc(C(F)(F)F)cc1CN(c1ncc(OCCS(C)(=O)=O)cn1)[C@@H](C)c1cc(C(F)(F)F)cc(C(F)(F)F)c1", "note": "[Pyrimidine compound (1), (S)-trans-{4-[({2-[({1-[3,5-bis(trifluoromethyl)phenyl]ethyl}{5-[2-(methylsulfonyl)ethoxy]pyrimidin-2-yl}amino)methyl]-4-(trifluoromethyl)phenyl}(ethyl)amino)methyl]cyclohexyl}acetic acid]", "values": [{"measurement": "Plasma LDL cholesterol lowering ratio", "setting": "[2]; [6]", "value": 16, "unit": "%"}, {"measurement": "Relative index", "setting": "[2]; [7]", "value": 0.84}, {"measurement": "Amount of LDL cholesterol in blood plasma", "setting": "[2]; [8]", "value": "18.9 ± 3.8", "unit": "mg/dL"}]}
